Laboratory results from ChEMBL document CHEMBL1201862, “PubChem BioAssay data set” (2004).
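Assay format: 96-well plates, 48-hour exposure. GI50: concentration for 50% inhibition of growth.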 Active and inactive are the calls of the source. Rule as the data show it: active = GI50 up to about 1.1 µM and inactive = higher.

Key:
Assay in all cases: growth of human tumour cells (NCI), 48 h
[1] = test system: 786-0
[2] = test system: ACHN
[3] = test system: HCC 2998
[4] = test system: HL-60
[5] = test system: HOP-62
[6] = test system: HT-29
[7] = test system: K562
[8] = test system: M14
[9] = test system: MCF7
[10] = test system: OVCAR-3
[11] = test system: SF-268
[12] = test system: SF-539
[13] = test system: SK-MEL-28
[14] = test system: SNB-19
[15] = test system: SNB-75
[16] = test system: SW-620
[17] = test system: U-251
[18] = test system: UACC-257
[19] = test system: UACC-62

| SMILES | GI50 [1] | GI50 [2] | GI50 [3] | GI50 [4] | GI50 [5] | GI50 [6] | GI50 [7] | GI50 [8] | GI50 [9] | GI50 [10] | GI50 [11] | GI50 [12] | GI50 [13] | GI50 [14] | GI50 [15] | GI50 [16] | GI50 [17] | GI50 [18] | GI50 [19] |
| --- | --- | --- | --- | --- | --- | --- | --- | --- | --- | --- | --- | --- | --- | --- | --- | --- | --- | --- | --- |
| O=C1/C(=C/c2ccc(O)cc2)CCc2ccc([N+](=O)[O-])cc21 | > 80.5 µM (inactive) | > 81.3 µM (inactive) | > 100 µM (inactive) | 5.5 µM (inactive) | 73.5 µM (inactive) | > 100 µM (inactive) | > 100 µM (inactive) | > 100 µM (inactive) | > 33.3 µM (inactive) | > 78.2 µM (inactive) | > 61.7 µM (inactive) | > 90.6 µM (inactive) | > 100 µM (inactive) | 39.1 µM (inactive) | 53.2 µM (inactive) | > 100 µM (inactive) | 60.4 µM (inactive) | 97.7 µM (inactive) | > 74.3 µM (inactive) |
| CC1CCC2C(C)C(OC(=O)CCC(=O)O)OC3OC4(C)CCC1C32OO4 (centres undefined) | 15.4 µM (inactive) | 4.52 µM (inactive) | 5.94 µM (inactive) | 0.427 µM (active) | 16.6 µM (inactive) | 3.52 µM (inactive) | 1.32 µM (inactive) | 17.2 µM (inactive) | 4.5 µM (inactive) | 5.52 µM (inactive) | 16.7 µM (inactive) | 11 µM (inactive) | 37.5 µM (inactive) | 37.6 µM (inactive) | 19.3 µM (inactive) | 1.57 µM (inactive) | 2.98 µM (inactive) | 2.17 µM (inactive) | 6.15 µM (inactive) |
| Cc1ccccc1NC(=O)CC(=O)NNC(Sc1ccccc1)c1cc(/N=N/c2ccc(Br)cc2)ccc1O (centres undefined) | 0.551 µM (active) | 1.82 µM (inactive) | 7.36 µM (inactive) | 0.277 µM (active) | 2.17 µM (inactive) | 9.48 µM (inactive) | 2.73 µM (inactive) | 0.723 µM (active) | 0.798 µM (active) | 0.368 µM (active) | 0.733 µM (active) | 1.37 µM (inactive) | 6.52 µM (inactive) | 9.48 µM (inactive) | 3.79 µM (inactive) | 0.723 µM (active) | 2.64 µM (inactive) | 3.65 µM (inactive) | 1 µM (active) |
| COC(=O)C1(Cc2ccccc2)Cc2ccccc2C1=O (centres undefined) | 60.5 µM (inactive) | 36.6 µM (inactive) | 42.3 µM (inactive) | 19.7 µM (inactive) | 72.1 µM (inactive) | 45.3 µM (inactive) | 35 µM (inactive) | 32.5 µM (inactive) | 42.1 µM (inactive) | 39.3 µM (inactive) | 70.8 µM (inactive) | > 100 µM (inactive) | 65.9 µM (inactive) | – | 42.7 µM (inactive) | 55 µM (inactive) | 27.7 µM (inactive) | 45.8 µM (inactive) | 67.3 µM (inactive) |
| CC1CCCCN1CC(=O)c1ccc2c(c1)Sc1ccccc1O2 (centres undefined) | 14.1 µM (inactive) | 15.3 µM (inactive) | 17.7 µM (inactive) | 10.2 µM (inactive) | 15.5 µM (inactive) | 8.61 µM (inactive) | 30.3 µM (inactive) | 19.5 µM (inactive) | 16 µM (inactive) | 14.4 µM (inactive) | 18.7 µM (inactive) | 16.9 µM (inactive) | 16.6 µM (inactive) | 17.9 µM (inactive) | 11 µM (inactive) | 19.1 µM (inactive) | 14.1 µM (inactive) | 18.4 µM (inactive) | 13.3 µM (inactive) |
| CCCCCCOc1ccc(NC2=C(Cl)C(=O)c3c(O)ccc(O)c3C2=O)cc1 | 0.611 µM (active) | 3.16 µM (inactive) | 1.8 µM (inactive) | 1.77 µM (inactive) | 1.77 µM (inactive) | 2.11 µM (inactive) | 3.1 µM (inactive) | 2.01 µM (inactive) | 0.414 µM (active) | 2.02 µM (inactive) | 6.22 µM (inactive) | 2.4 µM (inactive) | 2 µM (inactive) | 3.15 µM (inactive) | 4.06 µM (inactive) | 2.2 µM (inactive) | 2.32 µM (inactive) | 3.85 µM (inactive) | 2.58 µM (inactive) |
| Clc1ccc2oc(CCc3ccccc3)nc2c1 | 53.8 µM (inactive) | 47.2 µM (inactive) | 27.4 µM (inactive) | 34.7 µM (inactive) | > 100 µM (inactive) | 33.4 µM (inactive) | 49.9 µM (inactive) | 59.8 µM (inactive) | 38 µM (inactive) | 21.3 µM (inactive) | 87.9 µM (inactive) | > 100 µM (inactive) | 72.3 µM (inactive) | 91.6 µM (inactive) | 17.8 µM (inactive) | 49.4 µM (inactive) | 37.2 µM (inactive) | 42.4 µM (inactive) | > 100 µM (inactive) |
| O=C1c2c(Br)sc(Br)c2[C@@H](O)[C@H]1O | 15.2 µM (inactive) | 18 µM (inactive) | 20.1 µM (inactive) | 9.14 µM (inactive) | 16.9 µM (inactive) | 19.1 µM (inactive) | 2.91 µM (inactive) | 13.1 µM (inactive) | 17.1 µM (inactive) | 2.24 µM (inactive) | 10.8 µM (inactive) | 15.9 µM (inactive) | 19.5 µM (inactive) | 19.5 µM (inactive) | 15.4 µM (inactive) | 3.28 µM (inactive) | 7.48 µM (inactive) | 15.1 µM (inactive) | 16.7 µM (inactive) |
| CC(C)(C)c1cc2c(O)c(c1)Cc1cc(C(C)(C)C)cc(c1O)Cc1cc(C(C)(C)C)cc(c1O)Cc1cc(C(C)(C)C)cc(c1O)Cc1cc(C(C)(C)C)cc(c1O)Cc1cc(C(C)(C)C)cc(c1O)Cc1cc(C(C)(C)C)cc(c1O)Cc1cc(C(C)(C)C)cc(c1O)C2 | > 50 µM (inactive) | > 50 µM (inactive) | > 50 µM (inactive) | > 50 µM (inactive) | > 50 µM (inactive) | > 50 µM (inactive) | > 50 µM (inactive) | > 50 µM (inactive) | > 50 µM (inactive) | > 50 µM (inactive) | > 50 µM (inactive) | > 50 µM (inactive) | > 50 µM (inactive) | > 50 µM (inactive) | > 50 µM (inactive) | > 50 µM (inactive) | > 50 µM (inactive) | > 50 µM (inactive) | > 50 µM (inactive) |
| O=C(C/N=C(\CN(c1ccccc1)c1ccccc1)Oc1c([N+](=O)[O-])cc([N+](=O)[O-])cc1[N+](=O)[O-])N1CCNCC1 | > 100 µM (inactive) | > 100 µM (inactive) | > 100 µM (inactive) | > 100 µM (inactive) | > 100 µM (inactive) | > 100 µM (inactive) | > 100 µM (inactive) | > 100 µM (inactive) | > 100 µM (inactive) | > 100 µM (inactive) | > 100 µM (inactive) | > 100 µM (inactive) | > 100 µM (inactive) | > 100 µM (inactive) | 10.5 µM (inactive) | > 100 µM (inactive) | > 100 µM (inactive) | > 100 µM (inactive) | 43 µM (inactive) |
